In PubChem BioAssay AID212 (DTP/NCI, 2004):
Values joined by “and” are separate entries in the source; they are usually repeats but may differ in a detail not shown here. Equal entries are not always repeated. Results filed as inconclusive are left out.

Tested on: BDF1 mice, colon carcinoma 38 sc, T/C %
Test: NCI In Vivo Anticancer Drug Screen. Data for tumor model Colon Carcinoma 38 (subcutaneous) in B6D2F1 (BDF1) mice
Conditions: endpoint: median tumor weight (est.), higher = larger tumour
Procedure, shortened: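 Transplantable tumor in mice; compound-treated vs vehicle-dosed controls. Measured survival or tumor size; value = T ÷ C.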

[1] = dose: 50.0 mg/kg/injection, schedule: Q07DX002 (ip), vehicle: saline
[2] = dose: 100.0 mg/kg/injection, schedule: Q07DX002 (ip), vehicle: saline
[3] = dose: 200.0 mg/kg/injection, schedule: Q07DX002 (ip), vehicle: saline
[4] = dose: 100.0 mg/kg/injection, schedule: Q07DX002 (ip), vehicle: saline with Tween-80

CC1CC(C)CC(C)C(O)/C(C#N)=C/C=C/CC(C2CCCC2C(=O)O)OC(=O)CC(O)C(C)C1 (stereo not drawn)
T/C (dose: 0.13 mg/kg/injection, schedule: Q07DX003 (ip), vehicle: Klucel (hydroxypropylcellulose) (HPC)): 84 % of control
T/C (dose: 0.25 mg/kg/injection, schedule: Q07DX003 (ip), vehicle: Klucel (hydroxypropylcellulose) (HPC)): 80 % of control
T/C (dose: 0.5 mg/kg/injection, schedule: Q07DX003 (ip), vehicle: Klucel (hydroxypropylcellulose) (HPC)): 113 % of control
T/C (dose: 1.0 mg/kg/injection, schedule: Q07DX002 (ip), vehicle: Klucel (hydroxypropylcellulose) (HPC)): 92 % of control
T/C (dose: 1.0 mg/kg/injection, schedule: Q07DX003 (ip), vehicle: Klucel (hydroxypropylcellulose) (HPC)): 93 % of control
T/C (dose: 2.0 mg/kg/injection, schedule: Q07DX003 (ip), vehicle: Klucel (hydroxypropylcellulose) (HPC)): 69 % of control
T/C (dose: 4.0 mg/kg/injection, schedule: Q07DX002 (ip), vehicle: Klucel (hydroxypropylcellulose) (HPC)): 106 % of control
T/C (dose: 4.0 mg/kg/injection, schedule: Q07DX003 (ip), vehicle: Klucel (hydroxypropylcellulose) (HPC)): 88 % of control
T/C (dose: 8.0 mg/kg/injection, schedule: Q07DX002 (ip), vehicle: Klucel (hydroxypropylcellulose) (HPC)): 75 % of control

O=C1CCC(=O)N1CO
T/C [1]: 112 % of control and 98 % of control
T/C [2]: 99 % of control and 100 % of control
T/C [3]: 76 % of control and 91 % of control
T/C (dose: 400.0 mg/kg/injection, schedule: Q07DX002 (ip), vehicle: saline): 36 % of control and 58 % of control

CN(Cc1cnc2nc(N)nc(N)c2n1)c1c(Cl)cc(C(=O)NC(CCC(=O)O)C(=O)O)cc1Cl (stereo not drawn)
T/C (dose: 3.12 mg/kg/injection, schedule: Q07DX003 (ip), vehicle: Klucel (hydroxypropylcellulose) (HPC)): 155 % of control
T/C (dose: 6.25 mg/kg/injection, schedule: Q07DX003 (ip), vehicle: Klucel (hydroxypropylcellulose) (HPC)): 117 % of control
T/C (dose: 12.5 mg/kg/injection, schedule: Q07DX003 (ip), vehicle: suspension in saline): 87 % of control
T/C (dose: 25.0 mg/kg/injection, schedule: Q07DX003 (ip), vehicle: suspension in saline): 124 % of control
T/C (dose: 50.0 mg/kg/injection, schedule: Q07DX003 (ip), vehicle: Klucel (hydroxypropylcellulose) (HPC)): 72 % of control
T/C (dose: 50.0 mg/kg/injection, schedule: Q07DX003 (ip), vehicle: suspension in saline): 77 % of control
T/C (dose: 100.0 mg/kg/injection, schedule: Q07DX003 (ip), vehicle: Klucel (hydroxypropylcellulose) (HPC)): 90 % of control
T/C (dose: 100.0 mg/kg/injection, schedule: Q07DX003 (ip), vehicle: suspension in saline): 86 % of control
T/C (dose: 200.0 mg/kg/injection, schedule: Q07DX003 (ip), vehicle: Klucel (hydroxypropylcellulose) (HPC)): 102 % of control
T/C (dose: 200.0 mg/kg/injection, schedule: Q07DX003 (ip), vehicle: suspension in saline): 81 % of control
T/C (dose: 400.0 mg/kg/injection, schedule: Q07DX003 (ip), vehicle: Klucel (hydroxypropylcellulose) (HPC)): 62 % of control
T/C (dose: 400.0 mg/kg/injection, schedule: Q07DX003 (ip), vehicle: suspension in saline): 101 % of control

O=C(O)Cc1cccc2c(=O)c(-c3ccccc3)c(-c3ccccc3)oc12
T/C (dose: 25.0 mg/kg/injection, schedule: Q07DX002 (ip), vehicle: Klucel (hydroxypropylcellulose) (HPC)): 90 % of control
T/C (dose: 50.0 mg/kg/injection, schedule: Q07DX002 (ip), vehicle: Klucel (hydroxypropylcellulose) (HPC)): 92 % of control

CSc1cc(=O)n2c3ccccc3c3ccnc1c32
T/C (dose: 1.25 mg/kg/injection, schedule: Q07DX002 (ip), vehicle: saline with Tween-80): 60 % of control
T/C (dose: 2.5 mg/kg/injection, schedule: Q07DX002 (ip), vehicle: saline with Tween-80): 57 % of control and 77 % of control

CCCCCCCCCCCCCCCC(=O)OCC1OC(n2ccc(N)nc2=O)C(O)C1O (stereo not drawn)
T/C (dose: 25.0 mg/kg/injection, schedule: Q07DX002 (ip), vehicle: saline with Tween-80): 72 % of control
T/C (dose: 50.0 mg/kg/injection, schedule: Q07DX002 (ip), vehicle: saline with Tween-80): 36 % of control
T/C [4]: 7 % of control

Nc1nc(N)c2c(Cl)c(CNc3ccc(Cl)c(Cl)c3)ccc2n1
T/C (dose: 12.5 mg/kg/injection, schedule: Q07DX002 (ip), vehicle: saline with Tween-80): 73 % of control and 82 % of control and 88 % of control
T/C [4]: 5 % of control and 19 % of control

CN(C)[C@@H]1C(=O)C(C(N)=O)=C(O)[C@@]2(O)C(=O)C3=C(O)c4c(O)ccc(Cl)c4[C@@](C)(O)[C@H]3C[C@@H]12
T/C (dose: 25.0 mg/kg/injection, schedule: Q07DX002 (ip), vehicle: saline): 182 % of control
T/C (dose: 25.0 mg/kg/injection, schedule: Q07DX002 (ip), vehicle: suspension in saline): 82 % of control
T/C [1]: 188 % of control
T/C (dose: 50.0 mg/kg/injection, schedule: Q07DX002 (ip), vehicle: suspension in saline): 119 % of control
T/C [2]: 117 % of control
T/C (dose: 100.0 mg/kg/injection, schedule: Q07DX002 (ip), vehicle: suspension in saline): 80 % of control
T/C [3]: 93 % of control
T/C (dose: 200.0 mg/kg/injection, schedule: Q07DX002 (ip), vehicle: suspension in saline): 93 % of control
T/C (dose: 400.0 mg/kg/injection, schedule: Q07DX002 (ip), vehicle: suspension in saline): 65 % of control
